Literature values as cited in patent US20060083768A1, “Method of thickening a coating using a drug” (ATRIUM MEDICAL CORPORATION, priority 2004, published 2006).

System: Porcine Coronary Model
Settings: stents coated with agent solubilized in eicosapentaenoic acid oil vs eicosapentaenoic acid oil coated stents

In the case of C=C1[C@@H](C)[C@H]2[C@H](Cc3ccccc3)NC(=O)[C@]23[C@H](OC(C)=O)/C=C/[C@@](C)(O)C(=O)[C@@H](C)C/C=C/[C@H]3[C@@H]1O [cytochalasin D], the “less area stenosis compared to the control group” value is listed as 38% and the “less intimal hyperplasia compared to the control group” value is listed as 39%.
